“Also recorded” adds a separate entry of the source. Read-outs that look alike come from different tables or passages of the source.

Data on two compounds can be found in publication PMC11638965, “Leveraging Dual-Ligase Recruitment to Enhance Protein Degradation via a Heterotrivalent Proteolysis Targeting Chimera” (Journal of the American Chemical Society, 2024).

Experiment [1] deals with BRD4 (Homo sapiens, UniProt O60885). Put plainly: Live cell kinetic HiBiT degradation assay, HiBiT-BRD4 HEK293 cells (parental, CRBN KO, VHL KO). The class given is cell-based. The conditions noted are these: parental, CRBN KO and VHL KO HiBiT-BRD4 HEK293 cells (Figure S5); listed as 93. The procedure:
HEK293 HiBiT-BRD2 (LgBiT stable), HEK293 HiBiT-BRD3 (LgBiT stable), and HEK293 HiBiT-BRD4 (LgBiT stable) were created using CRISPR/Cas9 to insert at HiBiT tag at the N-terminal genomic loci of BRD2, BRD3, or BRD4 in a cell line stably expressing LgBiT protein as described previously.[23]
For kinetic degradation experiments, HEK293 HiBiT-BRD2, 3, or 4 (LgBiT stable) cells and HEK293 HiBiT-BRD4 (LgBiT) CRBN KO and VHL KO cells were plated at 20,000 cells/well in DMEM +10% FBS in white 96-well tissue culture plates and allowed to adhere overnight. The next day, media was removed and 90 μL of prewarmed CO2-independent medium (Gibco) containing Endurazine (Promega) at a 1:100 dilution from stock was added. Plates were incubated at 37 °C for 3 h to allow luminescence to equilibrate. A threefold dilution series of each PROTAC at 10x the desired final concentration was prepared (with the amount of DMSO in each treatment condition kept constant). After luminescence equilibration, a preread luminescence measurement was taken (prior to compound addition) to allow for baseline normalization to account for possible plating differences. Cells were then treated with 10 μL of the prepared PROTAC dilution series (in triplicate or quadruplicate). Treated plates were placed in a GloMax Discover luminometer (Promega) prewarmed to 37 °C and luminescence measurements were obtained every 7 min for 24 h. Kinetic degradation plots were obtained by first normalizing time course luminescence readings in each well to the preread measurement, then to the average value of the DMSO only control at each time point. Data was analyzed using GraphPad Prism (version 8) and excel. Dmax values were identified as the lowest luminescence reading in each well. Rate constant values were calculated using a one phase exponential decay Y = (Y0-Plateau) e(K*^X) + Plateau using Prism (Y0 constrained to 1). Dmax 50 values were calculated by plotting Dmax as a function of concentration, then fitting plots using the following equation: [drawing 1] to determine IC50.
HiBiT-BRD4 (LgBiT stable) HEK293 cells (Promega) were used to generate both VHL KO HiBiT-BRD4 (LgBiT stable) and CRBN KO HiBiT-BRD4 (LgBiT stable) cell lines. For VHL, gRNAs targeting exon 1 ([…]) and exon 2 ([…]) and for CRBN, gRNAs targeting exon 3 ([…]) and exon 6 ([…]) were purchased from IDT DNA (Table 5). For each gRNA, tracrRNA/crRNA duplexes were formed by combining 10 μL of 100 μM Alt-R […] (IDT), 100 μM Alt-R crRNA (IDT) and heating at 95C for 5 min, then were allowed to cool to room temp for 20 min. RNPs were then formed by combining 75 pmol Cas9 (IDT) with 2.4 μL total of prepared tracrRNA/crRNA complex (1.2 μL for each gRNA targeting each exon). Cells were then trypsinized and resuspended at 10,000,000 cells/mL in 1 mL of Mirus Ingenio electroporation solution. Three μL of 100 μM electroporation enhancer (Mirus) was added, along with 3 μL of RNP solution. Cells were electroporated in 2 mm cuvettes using a BioRad system (190 V, 950 μF, infinite resistance) and were then plated in a T75 flask in full growth medium to allow for recovery. After recovery from electroporation, knockout pools were sorted for single cells in 96-well tissue culture treated plates. Clonal populations which expanded from single cells were then screened for loss of function of VHL by treating with MZ1, or loss of function of CRBN by treating with dBET6, using a HiBiT-BRD4 luminescent readout assay. Genomic DNA isolated from candidate clones was then PCR-amplified (Table of primers below), Gibson-assembled into a pF1A plasmid backbone, transformed into E. coli., and then Sanger sequenced to confirm presence of indels in the targeted exons. […] VHL exon 3 carried a 19 bp deletion on one allele, and a 1 bp insertion on the other allele, both occurring after the premature stop codon in exon 1.
Background: The HiBiT peptide binds its large partner to form an active luciferase.

The subject of experiment [2] is RKO WT cells. Put plainly: cells. The class given is cell-based, human. The protocol:
(§1) RKO WT, VHL KO, CRBN KO and CRBN/VHL dKO cells were cultured in Dulbecco’s modified Eagle’s medium supplemented with 10% FCS and 1% penicillin–streptomycin. RKO CRBN KO and VHL KO were generated previously.[45] RKO CRBN/VHL dKO cells were generated by transiently expressing pSpCas9(BB)-2A-GFP (PX458) (Addgene 48138) loaded with a short guide RNA (sgRNA) targeting VHL (Fwd: […], Rev: […]) in RKO CRBN KO cells. Clones were single cell seeded and checked for VHL and CRBN double deletion via Western blot or PCR on genomic DNA (gDNA).
Cells were seeded in 96-well plates at a cell density of 3750 cells per well and treated for 3 days with DMSO or drug at ten √10 serial diluted concentrations. […] Cell viability was assessed using the CellTiter-Glo assay (CellTiter-Glo Luminescent Cell Viability Assay, Promega G7573) according to manufacturer instructions. Luminescence signal was measured on a Multilabel Plate Reader Platform Victor X3 model 2030 (PerkinElmer). Survival curves and EC50 values were determined using GraphPad Prism v.10.0.3 by fitting a nonlinear regression to the log10-transformed drug concentration and the relative viability after normalization of each data point to the mean luminescence of the lowest drug concentration.

Experiment [3] concerns RKO CRBN/VHL dKO cells. Kind of experiment: Cell viability assay (CellTiter-Glo). The class given is cell-based, human. The procedure:
as §1
(§2) Cells were seeded in 96-well plates at a cell density of 3750 cells per well and treated for 3 days with DMSO or drug at ten √10 serial diluted concentrations. Starting concentration for all drugs was 10 μM, and each treatment was performed in biological triplicates. Cell viability was assessed using the CellTiter-Glo assay (CellTiter-Glo Luminescent Cell Viability Assay, Promega G7573) according to manufacturer instructions. Luminescence signal was measured on a Multilabel Plate Reader Platform Victor X3 model 2030 (PerkinElmer). Survival curves and EC50 values were determined using GraphPad Prism v.10.0.3 by fitting a nonlinear regression to the log10-transformed drug concentration and the relative viability after normalization of each data point to the mean luminescence of the lowest drug concentration.
For orientation: In ATP-based viability assays light output follows the ATP content of the culture.

Experiment [4] relates to RKO VHL KO cells. Kind of experiment: Cell viability assay (CellTiter-Glo). The class given is cell-based, human. The protocol: as §1, §2
The test system of experiment [5] is RKO CRBN KO cells. Kind of experiment: Cell viability assay (CellTiter-Glo). The class given is cell-based, human. To be noted: 500 pM to 10 μM, 3 days (Figure 10, Table S6).
Experiment [6] relates to RKO CRBN KO cells. Kind of experiment: Cell viability assay (CellTiter-Glo). The class given is cell-based, human. The conditions noted are these: Homo sapiens, 72 h, 316 pM to 10 μM, 3 days, n = 6 (Figure 3C, Table S1). The protocol:
as §1, §2

The test system of experiment [7] is K562 cells. Put plainly: Cell viability assay (CellTiter-Glo). The class given is cell-based, human. To be noted: Homo sapiens; WT K562, 5.12 pM to 10 uM, n = 3 (Table S4). The procedure:
as §2, with “[…],” for “3750 cells per well and treated for 3 days with DMSO or drug at ten √10 serial diluted concentrations. Starting concentration for all drugs was 10 μM,”

For experiment [8], the system named is KBM7 cells. Put plainly: Cell viability assay (CellTiter-Glo). The class given is cell-based, human. The conditions noted are these: Homo sapiens, KBM-7; WT KBM7, 5.12 pM to 10 uM, n = 3 (Table S4). The procedure: as §2, with “[…],” for “3750 cells per well and treated for 3 days with DMSO or drug at ten √10 serial diluted concentrations. Starting concentration for all drugs was 10 μM,”

Setting [9] is: Homo sapiens, 72 h, 500 pM to 10 μM, 3 days (Figure 10, Table S6), read-out: EC50 RKO WT.

As for `Cc1ncsc1-c1ccc([C@H](C)NC(=O)[C@@H]2C[C@@H](O)CN2C(=O)[C@@H](NC(=O)COCC(C)(COCCOCCOCCNc2cc3c(cc2F)C(=O)N(C2CCC(=O)N(C)C2=O)C3=O)COCCOCCOCCOC(=O)C[C@@H]2N=C(c3ccc(Cl)cc3)c3c(sc(C)c3C)-n3c(C)nnc32)C(C)(C)C)cc1` (mixture of isomers) [neg-AB3067 (93), (17S)-11-((2-(2-(2-((6-fluoro-2-(1-methyl-2,6-dioxopiperidin-3-yl)-1,3-dioxoisoindolin-5-yl)amino)ethoxy)ethoxy)ethoxy)methyl)-17-((2S,4R)-4-hydroxy-2-(((S)-1-(4-(4-methylthiazol-5-yl)phenyl)ethyl)carbamoyl)pyrrolidine-1-carbonyl)-11,18,18-trimethyl-15-oxo-3,6,9,13-tetraoxa-16-azanonadecyl 2-((S)-4-(4-chlorophenyl)-2,3,9-trimethyl-6H-thieno[3,2-f][1,2,4]triazolo[4,3-a][1,4]diazepin-6-yl)acetate], the “on-target BRD4 degradation activity (in words)” value in experiment [1] is “inactive in VHL KO cells; also recorded: decreased relative to 27 in parental and CRBN KO cells”. Further, the EC50 in experiment [2] (500 pM to 10 μM, 3 days (Figure 10, Table S6), listed as 93, read-out: EC50 RKO WT) was 107 nM; in experiment [2] (setting [9]), about 106 nM; in experiment [3] (500 pM to 10 μM, 3 days (Figure 10, Table S6), read-out: EC50 RKO CRBN/VHL dKO) it was about 400 nM; in experiment [3] (Homo sapiens, 72 h, 500 pM to 10 μM, 3 days (Figure 10, Table S6), read-out: EC50 RKO CRBN/VHL dKO), 420 nM; in experiment [4] (500 pM to 10 μM, 3 days (Figure 10, Table S6)), about 400 nM; in experiment [4] (Homo sapiens, 72 h, 500 pM to 10 μM, 3 days (Figure 10, Table S6)) it was 391 nM. Moreover, the EC50 in experiment [5] (listed as 93) is 105 nM; in experiment [5] (Homo sapiens, 72 h), about 106 nM.

Consider `Cc1ncsc1-c1ccc(CNC(=O)[C@@H]2C[C@@H](O)CN2C(=O)[C@@H](NC(=O)COCCOCCOCCNC(=O)C[C@@H]2N=C(c3ccc(Cl)cc3)c3c(sc(C)c3C)-n3c(C)nnc32)C(C)(C)C)cc1` [MZ1, reference compound], for which the EC50 was 212 nM in experiment [2] (Homo sapiens, 72 h, 316 pM to 10 μM, 3 days, n = 6 (Figure 3C, Table S1), read-out: EC50 RKO WT); 160 nM in experiment [2] (setting [9]); 152 nM in experiment [2] (Homo sapiens, RKO WT, 316 pM to 10 μM, n = 6, combination: dBET6 and MZ1 each from 5 μM (Table S7), read-out: EC50 RKO); 188 nM in experiment [2] (Homo sapiens, WT RKO, 316 pM to 10 μM, n = 3 (Table S4), read-out: EC50 RKO); 181 nM in experiment [6]; over 5000 nM in experiment [3] (Homo sapiens, Figure 10 experiment, read-out: EC50 RKO VHL/CRBN dKO). In addition, the EC50 in experiment [3] (Homo sapiens, both VHL and CRBN knocked out (Figure 3C), read-out: EC50 RKO CRBN/VHL dKO) is over 10000 nM; in experiment [4] (Homo sapiens, 72 h, 316 pM to 10 μM, 3 days, n = 6 (Figure 3C, Table S1)), over 10000 nM; in experiment [4] (Homo sapiens, Figure 10 experiment), over 5000 nM; in experiment [7] it was 216 nM; in experiment [8], 66.2 nM; in experiment [5] (Homo sapiens, 72 h), 136 nM.
